Experiment: Immersion test: binding / wash-out of photocatalysts from SolGel coatings (1 h deionised water, UV-VIS signal loss)
Type: physicochemical
Conditions: Rezeptur 5 coating on glass, dye 10 bis 40 mM; 1 h deionised water pH 6 ± 1, 22 ± 3 °C; relative UV-VIS signal loss at absorption maximum
Experimental: Für alle Untersuchungen wurden nach Beispiel 8 beschichtete Glasträger verwendet.
Um das Auswaschen der verschiedenen Farbstoffe in den Sol-Gel-Beschichtungen zu beurteilen wurde ein Immersionstest in vollentsalztem Wasser mit einem pH-Wert von (6 ± 1) und einer Wassertemperatur von (22 ± 3) °C für eine Stunde durchgeführt. Dazu wurden zunächst Schichten (Rezeptur 5, Beispiel 4, aufgefüllt mit 3,0 mL 2-Propanol; sh. Tabelle 3) mit erhöhter Farbstoffkonzentration (10 bis 40 mM; um die notwendige Auflösung bei der dünnen Schicht zu erreichen) auf Glas-Objektträgern erzeugt. Diese wurden nach dem Ablüften bei Raumtemperatur (30 min) eine Stunde bei 60°C nachgehärtet. Anschließend wurden die Schichten direkt im UV-VIS-Spektrometer vermessen. Die Ausgangswerte (Absorptionsmaximum des jeweiligen Farbstoffs) sollten dabei zwischen 0,05 A.U. und 1,50 A.U. liegen.
Nach einer Stunde in VE-Wasser wurden die Prüfkörper getrocknet und erneut gemessen. Aus den beiden Messungen wurde ein relativer Signalverlust in Prozent bei dem farbstoffspezifischen Absorptionsmaximum bestimmt.
Dieser Immersionstest diente dazu, das Auswaschverhalten verschiedener Farbstoffe aus Beschichtungssystemen zu beurteilen. Weiter soll er dabei helfen, verschiedene Farbstoffklassen oder verschiedene Farbstoffderivate einer Farbstoffklasse bezüglich dieser Charakteristik miteinander zu vergleichen. Die Ergebnisse sind in den folgenden Tabellen sortiert nach Stoffgruppen zusammengefasst: […]

CC(C)(O)c1cc[n+](CC2=Cc3cccc4cccc(c34)C2=O)cc1 [S-25a]
Verlust durch Auswaschen: 8%
